# Test results taken from paper PMC12373846, “Hemoglobin as a pseudoperoxidase and drug target for oxidative stress-related diseases” (Signal Transduction and Targeted Therapy, 2025).
# Read-outs that look alike come from different tables or passages of the source.
# How the values were obtained:
# GPx = GPx colorimetric assay; format: biochemical; conditions: standard GPx assay
# Experimental: To assess the GPx activity, the reaction was prepared in a 96-well plate by adding glutathione reductase and glutathione solution, GPx enzyme (5µl, final concentration 60 U/ml), and the drug (1 µl of KDS12025 and HTEPB) to a total volume of 100 µl per well, followed by manufactural protocol (Abcam, ab102530). The plate was incubated at room temperature for 15 min to allow pre-reactions and drug interactions to occur. Following the incubation, the reaction was initiated by adding cumene hydroperoxide as the substrate to each well. The absorbance at 340 nm was measured in kinetic mode for 10–20 min, and the rate of NADPH consumption was used to calculate GPx activity, reflecting the enzyme’s ability to reduce the hydroperoxide substrate in the presence of the test compound.
# HRP = target: T1, HRP (Armoracia rusticana, UniProt P00433); test: Bubbling liberation (oxygen release) with HRP; format: biochemical, horseradish; conditions: HRP + H2O2, Fig. 2g
# T1 sequence (P00433 31-353): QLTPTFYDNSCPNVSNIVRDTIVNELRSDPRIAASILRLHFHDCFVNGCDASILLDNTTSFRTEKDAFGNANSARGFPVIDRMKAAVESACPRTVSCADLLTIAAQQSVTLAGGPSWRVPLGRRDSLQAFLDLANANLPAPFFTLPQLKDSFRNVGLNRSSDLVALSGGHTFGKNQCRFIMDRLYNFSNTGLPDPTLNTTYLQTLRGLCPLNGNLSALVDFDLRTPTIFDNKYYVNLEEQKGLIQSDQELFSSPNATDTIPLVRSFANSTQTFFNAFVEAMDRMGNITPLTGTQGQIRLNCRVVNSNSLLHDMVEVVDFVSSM
# Experimental: (§1) The effects of bubbling with DMSO, HTPEB, and KDS12025 were evaluated. To measure the degree of bubbling quantitatively, the reactions were conducted in sealed tubes connected to an inverted cylinder submerged in a water bath to record the time and volume of the bubbles produced. […] Vehicle, HTPEB, and KDS12025 were added to assess their effects. A similar procedure was followed for Hb.
# Hb = target: T2, Hb (Homo sapiens, UniProt P68871); test: Bubbling liberation (oxygen release) with Hb; format: biochemical; conditions: Hb + H2O2, Fig. 2g
# T2 construct: purchased Sigma-Aldrich H7379
# T2 sequence (P68871 2-147 limits assumed): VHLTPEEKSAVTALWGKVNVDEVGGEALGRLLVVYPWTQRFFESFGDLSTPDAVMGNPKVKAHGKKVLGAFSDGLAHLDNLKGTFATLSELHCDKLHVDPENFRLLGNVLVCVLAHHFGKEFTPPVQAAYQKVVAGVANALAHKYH
# T2 sequence (P69905 2-142 partner limits assumed): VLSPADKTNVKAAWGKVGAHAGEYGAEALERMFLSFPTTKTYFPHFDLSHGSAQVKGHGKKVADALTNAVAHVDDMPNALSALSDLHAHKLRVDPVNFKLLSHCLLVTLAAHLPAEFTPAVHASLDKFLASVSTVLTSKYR
# Experimental: as §1
# CIA DBA1 mice = test: CIA mouse model of rheumatoid arthritis; format: in vivo; parameters: matrix, toluidine blue (Fig. S20m) / surface regularity, toluidine blue (Fig. S20n) / CIA score at day 42 (Fig. S20c) / area under the curve (AUC) of symptom severity (Fig. S20e): scale not given here; cartilage thickness, toluidine blue (Fig. S20o): unit not given here
# Experimental: CIA was induced in DBA1 mice by intradermal injection of type II collagen emulsified in Complete Freund's Adjuvant (CFA) on day 0, followed by a booster injection of type II collagen in Incomplete Freund's Adjuvant (IFA) on day 21. Starting from day 23, mice were administered KDS12025 in drinking ad libitum at doses of 0, 0.1, or 1 mg/kg/day until day 42. To assess joint inflammation and cartilage thickness in CIA mice, joint samples were collected and fixed in 10% formalin. The samples were then decalcified, embedded in paraffin, and sectioned. For histological evaluation, sections were stained with H&E to assess inflammation and with Toluidine Blue to evaluate cartilage thickness. The stained sections were examined under a light microscope, and images were captured for quantitative analysis of inflammatory cell infiltration and cartilage integrity.
# [1] = PK-BBB brain-plasma permeability; format: in vivo, mouse; conditions: 5 mg/kg IV
# Experimental: For the brain-plasma permeability assessment, brain tissues from male ICR mice (n = 3 per time point) were collected following euthanasia by CO2 inhalation. Brains were excised, rinsed with saline, blotted dry, and transferred into pre-labeled Eppendorf tubes (one brain per tube). Samples were snap-frozen on dry ice and stored at -80 °C until analysis. Brain samples were processed using the same LC-MS/MS method. The brain-to-plasma concentration ratio was calculated as the concentration of drug in brain tissue divided by the corresponding plasma concentration.
# mouse hemoglobin (mHb) = target: T3, mouse hemoglobin (mHb) (Mus musculus, UniProt P02088); test: ROS-Glo H2O2 assay with mouse hemoglobin; format: biochemical; conditions: Fig. S1f; read-out: EC50, H2O2 decomposition with mouse hemoglobin (mHb)
# T3 construct: Mouse hemoglobin (Hb) purified from erythrocytes; purchased CUSABIO CSB-NP004901m; host or cells: erythrocytes
# T3 sequence (P02088 2-147 limits assumed): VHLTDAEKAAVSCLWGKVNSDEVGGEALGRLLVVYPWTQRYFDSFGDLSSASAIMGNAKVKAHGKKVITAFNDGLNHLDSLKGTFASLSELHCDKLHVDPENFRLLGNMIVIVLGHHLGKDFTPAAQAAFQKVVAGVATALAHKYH
# T3 sequence (P01942 2-142 partner limits assumed): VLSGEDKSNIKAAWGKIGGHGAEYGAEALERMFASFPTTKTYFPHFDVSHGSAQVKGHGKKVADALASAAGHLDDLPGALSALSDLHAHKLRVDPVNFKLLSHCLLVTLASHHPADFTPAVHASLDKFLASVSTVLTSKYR
# Experimental: Mouse hemoglobin (Hb) purified from erythrocytes (Cat. CSB-NP004901m, CUSABIO) was used for the ROS-Glo H2O2 assay. KDS12025 was added in a dose-dependent manner to a reaction mixture containing mouse Hb and H2O2. The assay was performed according to the manufacturer’s protocol (Promega), and luminescence was measured using an iD5 plate reader. H2O2-decomposing activity was calculated as the percentage reduction in luminescence relative to controls. Assays with human Hb were conducted in parallel for comparison.
structure (smiles),measurement,setting,value
"O=C(O)c1cc(NCCc2ccc(C(F)(F)F)cc2)ccc1O [HTPEB, 2-hydroxy-5-[2-(4-trifluoromethyl-phenyl)-ethylamino]-benzoic acid, reference compound]",effect on GPx activity,GPx,no enhancement
same,bubbles per 1 × 1 mm^2 area,HRP,9.0±1.0
same,bubbles per 1 × 1 mm^2 area,Hb,12.5±3.969
"CNc1ccc(NCCc2ccccc2OC)cc1.Cl [KDS12025, N^1-(2-methoxyphenethyl)-N^4-methylbenzene-1,4-diamine hydrochloride salt]",effect on GPx activity,GPx,did not affect other peroxidases
same,CIA score at day 42 (Fig. S20c),CIA DBA1 mice; 0.1 MPK,9.5±1.133
same,area under the curve (AUC) of symptom severity (Fig. S20e),CIA DBA1 mice; 0.1 MPK,54.17±15.02
same,body weight difference (Fig. S20p),CIA DBA1 mice; 0.1 MPK,93±0.5%
same,"bone erosion, H&E (Fig. S20k)",CIA DBA1 mice; 0.1 MPK,0.852±0.3905
same,"cartilage destruction, H&E (Fig. S20i)",CIA DBA1 mice; 0.1 MPK,1.5±0.2949
same,"cartilage thickness, toluidine blue (Fig. S20o)",CIA DBA1 mice; 0.1 MPK,0.85±0.2018
same,"matrix, toluidine blue (Fig. S20m)",CIA DBA1 mice; 0.1 MPK,1.504±0.3303
same,"pannus formation, H&E (Fig. S20j)",CIA DBA1 mice; 0.1 MPK,0.9±0.3929
same,paw volume (Fig. S20f),CIA DBA1 mice; 0.1 MPK,0.1383 ± 0.0074 mL
same,"surface regularity, toluidine blue (Fig. S20n)",CIA DBA1 mice; 0.1 MPK,1.352±0.3083
same,"synovial hyperplasia, H&E (Fig. S20h)",CIA DBA1 mice; 0.1 MPK,1.338±0.2985
same,CIA score at day 42 (Fig. S20c),CIA DBA1 mice; 1 MPK,6.583±0.7002
same,area under the curve (AUC) of symptom severity (Fig. S20e),CIA DBA1 mice; 1 MPK,25.0±9.129
same,body weight difference (Fig. S20p),CIA DBA1 mice; 1 MPK,100.7±0.4%
same,"bone erosion, H&E (Fig. S20k)",CIA DBA1 mice; 1 MPK,0.338±0.2928
same,"cartilage destruction, H&E (Fig. S20i)",CIA DBA1 mice; 1 MPK,0.966±0.2183
same,"cartilage thickness, toluidine blue (Fig. S20o)",CIA DBA1 mice; 1 MPK,0.652±0.1825
same,"matrix, toluidine blue (Fig. S20m)",CIA DBA1 mice; 1 MPK,0.988±0.2547
same,"pannus formation, H&E (Fig. S20j)",CIA DBA1 mice; 1 MPK,0.338±0.2928
same,paw volume (Fig. S20f),CIA DBA1 mice; 1 MPK,0.1183 ± 0.0047 mL
same,"surface regularity, toluidine blue (Fig. S20n)",CIA DBA1 mice; 1 MPK,0.95±0.2009
same,"synovial hyperplasia, H&E (Fig. S20h)",CIA DBA1 mice; 1 MPK,0.7620±0.3263
same,Brain concentration,[1]; 2 h,BLQ
same,Brain concentration,[1]; 4 h,BLQ
same,Brain concentration,[1]; 8 h,BLQ
same,Plasma concentration,[1]; 8 h,BLQ
same,concentration at 0.083 h,"[1]; male, ICR, mouse, brain, 0.083 h, read-out: Brain concentration",1680 ± 34.2 ng/g
same,Kp at 0.083 h,"[1]; male, ICR, mouse, brain, 0.083 h, read-out: Brain to plasma ratio (B/P)",0.9 ± 0.17
same,concentration at 0.25 h,"[1]; male, ICR, mouse, brain, 0.25 h, read-out: Brain concentration",589 ± 44.1 ng/g
same,Kp at 0.25 h,"[1]; male, ICR, mouse, brain, 0.25 h, read-out: Brain to plasma ratio (B/P)",0.76 ± 0.04
same,concentration at 0.5 h,"[1]; male, ICR, mouse, brain, 0.5 h, read-out: Brain concentration",234 ± 31.7 ng/g
same,Kp at 0.5 h,"[1]; male, ICR, mouse, brain, 0.5 h, read-out: Brain to plasma ratio (B/P)",0.84 ± 0.19
same,concentration at 1 h,"[1]; male, ICR, mouse, brain, 1 h, read-out: Brain concentration",65.6 ± 12.3 ng/g
same,Kp at 1 h,"[1]; male, ICR, mouse, brain, 1 h, read-out: Brain to plasma ratio (B/P)",0.79 ± 0.25
same,half-life,"[1]; male, ICR, mouse, brain, mice, read-out: brain t1/2 (PK-BBB) (converted)",14.4 min
same,concentration at 0.083 h,"[1]; male, ICR, mouse, plasma, 0.083 h, read-out: Plasma concentration",1.91 ± 0.323 µg/mL
same,concentration at 0.25 h,"[1]; male, ICR, mouse, plasma, 0.25 h, read-out: Plasma concentration",0.782 ± 0.104 µg/mL
same,concentration at 0.5 h,"[1]; male, ICR, mouse, plasma, 0.5 h, read-out: Plasma concentration",0.284 ± 0.0455 µg/mL
same,concentration at 1 h,"[1]; male, ICR, mouse, plasma, 1 h, read-out: Plasma concentration",0.0847 ± 0.0103 µg/mL
same,concentration at 2 h,"[1]; male, ICR, mouse, plasma, 2 h",0.0155 ± 0.00709 µg/mL
same,concentration at 4 h,"[1]; male, ICR, mouse, plasma, 4 h",0.00299 ± 0.00052 µg/mL
same,AUC,"[1]; male, ICR, mouse, plasma, mice, read-out: plasma AUCall (PK-BBB)",0.721 µg·h/mL
same,clearance,"[1]; male, ICR, mouse, plasma, mice, read-out: plasma Cl (PK-BBB) (converted)",6.91 L/h/kg
same,half-life,"[1]; male, ICR, mouse, plasma, mice, read-out: plasma t1/2 (PK-BBB) (converted)",39 min
same,brain AUCall (PK-BBB),[1]; mice,0.43701 µg·h/mL
same,brain Cmax (PK-BBB),[1]; mice,1.68064 µg/mL
same,EC50,mouse hemoglobin (mHb),0.024 µM
same,bubbles per 1 × 1 mm^2 area,HRP,7.3±0.947
same,bubbles per 1 × 1 mm^2 area,Hb,13.5±2.533
